Measurements reported in ChEMBL document CHEMBL1157956, “Aegicerin, the first oleanane triterpene with wide-ranging antimycobacterial activity, isolated from Clavija procera” (J Nat Prod, 2006).
≈ marks a conversion by molar mass, not a printed value.

Assays:
[1] = system: Mycobacterium tuberculosis; assay: Antimicrobial activity against Mycobacterium tuberculosis H37Rv by alamar blue assay; type: functional
[2] = system: Mycobacterium tuberculosis; assay: Antimicrobial activity against drug-susceptible Mycobacterium tuberculosis isolate by alamar blue assay; type: functional
[3] = Cytotoxicity against african green monkey Vero cells; type: cell-based; conditions: chlorocebus sabaeus

Compound	MIC [1] [µg/mL]	MIC [2] [µg/mL]	GI50 [3] [µg/mL]
CC1(C)CC[C@]23CO[C@@]4(CC[C@@H]5[C@@]6(C)CC[C@H](O)C(C)(C)[C@@H]6CC[C@@]5(C)[C@]4(C)CC2=O)[C@@H]3C1 [AEGICERIN]	3.1 (≈ 6.79 µM)	1.6 (≈ 3.5 µM)	> 40
NNC(=O)c1ccncc1 [ISONIAZID]	0.125 (≈ 0.911 µM)	0.125 (≈ 0.911 µM)	
CC1(C)CC[C@]23CO[C@@]4(CC[C@@H]5[C@@]6(C)CC[C@H](O)C(C)(C)[C@@H]6CC[C@@]5(C)[C@]4(C)C[C@H]2O)[C@@H]3C1 [PROTOPRIMULAGENIN A]	200 (≈ 436 µM)	200 (≈ 436 µM)	
CO[C@H]1/C=C/O[C@@]2(C)Oc3c(C)c(O)c4c(O)c(c(/C=N/N5CCN(C)CC5)c(O)c4c3C2=O)NC(=O)/C(C)=C\C=C\[C@H](C)[C@H](O)[C@@H](C)[C@@H](O)[C@@H](C)[C@H](OC(C)=O)[C@@H]1C [RIFAMPIN]	0.063 (≈ 0.0766 µM)	0.063 (≈ 0.0766 µM)	
